A short description of test [1]: NIH-3T3 fibroblast cytotoxicity, dose response, cytotoxicity control, cell-based, fluorescence, Alamar Blue, secondary assay (AID 2327).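 Further: NIH-3T3 mouse fibroblasts cultured with fluconazole at 8 µg/mL.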 The format is functional. For orientation: The colour change of resazurin is a common sign of viable cells or microbes.
A short description of test [2]: luciferase reporter signal suppression in cells – H4 neuroglioma cells, luminescence, dose response (AID 1990). It is filed as functional, cell-based.
Test [3] concerns BJ. Kind of test: BJ-TERT fibroblast viability loss – cell-based, RAS-independent, luminescence, dose response (AID 1933). It is filed as functional. Particulars: Homo sapiens.
The nature of test [4]: Luminescence Cell-Based Dose Response HTS to Identify Inhibitors of 5'UTR Stem-Loop Driven Prion Protein mRNA Translation in H4 Neuroglioblastoma Cells. [Related pubchem assays: 1827 (Project Summary), 1813 (Primary HTS)]. It is filed as functional.
Test [5] is described as follows: alpha-synuclein stem-loop luciferase translation blockers – H4 neuroglioma cells, luminescence, confirmation (AID 1988). The format is functional, cell-based.
In test [6] the test system is BJ. Kind of test: cells. It is filed as functional, cell-based. Particulars: Homo sapiens.
Test [7] can be described thus: fluconazole-exposed Candida albicans growth modulators – fluorescence, retest, confirmation (AID 2467). The format is functional, cell-based.
Test [8] has as its system BJ. Kind of test: BJ-TERT-LT-ST fibroblast viability loss – cell-based, RAS-independent, luminescence, dose response (AID 1935).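 Further: BJ fibroblasts immortalized with TERT plus LT and ST oncogenes.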 The format is functional. As to conditions: Homo sapiens.
Test [9] is described as follows: DRD fibroblast viability loss – cell-based, non-viral oncogenic, luminescence, dose response (AID 1934). As to conditions: Homo sapiens. The format is functional.
The subject of the next test is INS1. As to the kind of experiment: INS-1E survival protection against cytokine death – cell-based, luminescence, retest, dose response (AID 449756).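 Further: cell death triggered by IL-1 beta plus TNF-alpha plus IFN-gamma mixture; protective hits raise ATP signal compared with cytokine alone wells.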 Particulars: Rattus norvegicus. The format is functional.
The target in another test is Estrogen receptor beta (Homo sapiens, UniProt Q92731).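 Further: recombinant ER-beta bound to coactivator SRC1 peptide in presence of estradiol agonist; inhibitors block coactivator peptide binding and lower the FRET signal.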
Estrogen receptor beta, sequence (Q92731 whole entry): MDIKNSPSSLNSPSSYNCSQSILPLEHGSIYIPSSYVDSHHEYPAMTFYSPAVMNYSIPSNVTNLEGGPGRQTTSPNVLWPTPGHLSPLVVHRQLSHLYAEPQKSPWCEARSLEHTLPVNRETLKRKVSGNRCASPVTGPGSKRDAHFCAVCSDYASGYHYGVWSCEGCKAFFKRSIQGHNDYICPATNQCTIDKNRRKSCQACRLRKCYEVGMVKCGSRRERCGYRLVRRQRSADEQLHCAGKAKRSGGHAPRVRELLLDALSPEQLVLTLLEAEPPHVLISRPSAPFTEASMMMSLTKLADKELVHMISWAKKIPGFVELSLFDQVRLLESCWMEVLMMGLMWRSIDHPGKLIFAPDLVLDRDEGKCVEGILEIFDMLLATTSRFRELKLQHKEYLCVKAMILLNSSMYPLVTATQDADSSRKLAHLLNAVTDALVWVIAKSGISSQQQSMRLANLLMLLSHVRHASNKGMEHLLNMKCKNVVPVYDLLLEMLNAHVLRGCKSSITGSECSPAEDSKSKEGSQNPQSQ

What is called EC50 is the midpoint of the concentration-response curve. For orientation: AC50 means the midpoint of the concentration-response curve, whichever way the signal moves. A word on the IC50: it is the point on the concentration scale where inhibition reaches its midpoint. Higher therefore signals weaker potency.

Calls of active or inactive are those of the source. For most assays here, no stated cut-off is given here; in the data, actives have a measured EC50 and inactives only a lower limit. Where only a bound is given, the exact number is not on record here.

Turning to `COc1ccc(-[n+]2c(-c3ccccc3)cc(-c3ccccc3)cc2-c2ccccc2)cc1.[O-][Cl+3]([O-])([O-])[O-]`, the EC50 in test [1] is 40.7 µM (active); in test [2] it was 11 µM (active); in the test with BJ [3], 11.7 µM (inconclusive); in test [4], > 120 µM (not active); in [5], 17.9 µM (active); in the test on BJ [6], 14.1 µM (active). Further, the figures for the EC50 (in test [7]; in the test on BJ [8]; in test [9]) were 0.046 µM (active), > 150 µM (inconclusive) and 14.1 µM (active), respectively. In the test on INS1, the half-maximal activity concentration (AC50) was 1.33 µM (active).
Turning to `COc1ccc(Cn2nnnc2C(c2ccccc2OC)N2CCC(C(N)=O)CC2)cc1` (stereo unspecified), the IC50 at Estrogen receptor beta is given as > 50 µM (not active).
In the case of `N#C/C(=C\c1c(N2CCC(C(N)=O)CC2)nc2ccccn2c1=O)S(=O)(=O)c1ccccc1`, the IC50 on Estrogen receptor beta is > 50 µM (not active).
Take `COc1c(/C=N/Nc2ccc([N+](=O)[O-])cc2[N+](=O)[O-])c(C)nn1-c1ccccc1`: the EC50 with BJ [3] was 7.99 µM (active); with BJ [6] it was > 150 µM (not active); in the test on BJ [8], > 150 µM (inconclusive); in test [9] it was 15.8 µM (active).

For the origin of these results see ChEMBL document CHEMBL1201862, “PubChem BioAssay data set” (2004).
